Test results from PubChem BioAssay AID248 (DTP/NCI, 2004).
Values joined by “and” are separate entries in the source; they are usually repeats but may differ in a detail not shown here. Identical values can stand only once. Toxic doses and inconclusive results are not listed. Rule as the data show it: active = T/C of 150% or more; inactive = T/C below 125%.

Test system: L1210 leukemia ip in BDF1 mice, survival T/C
Assay: NCI In Vivo Anticancer Drug Screen. Data for tumor model L1210 Leukemia (intraperitoneal) in B6D2F1 (BDF1) mice
Details: endpoint: mean survival time, higher = longer survival
Outline: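 Tumor was transplanted into mice, which were then dosed with test compound or vehicle alone. Survival was recorded for each group, and the treated figure was expressed relative to the control figure.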

[1] = dose: 75.0 mg/kg/injection, schedule: Q01DX001 (ip), vehicle: saline
[2] = dose: 150.0 mg/kg/injection, schedule: Q01DX001 (ip), vehicle: saline
[3] = dose: 300.0 mg/kg/injection, schedule: Q01DX001 (ip), vehicle: saline
[4] = dose: 300.0 mg/kg/injection, schedule: Q01DX009 (ip), vehicle: saline
[5] = dose: 25.0 mg/kg/injection, schedule: Q01DX009 (ip), vehicle: saline with Tween-80
[6] = dose: 50.0 mg/kg/injection, schedule: Q01DX009 (ip), vehicle: saline with Tween-80
[7] = dose: 100.0 mg/kg/injection, schedule: Q01DX009 (ip), vehicle: saline with Tween-80
[8] = dose: 100.0 mg/kg/injection, schedule: Q01DX009 (ip), vehicle: Klucel (hydroxypropylcellulose) (HPC)
[9] = dose: 200.0 mg/kg/injection, schedule: Q01DX009 (ip), vehicle: Klucel (hydroxypropylcellulose) (HPC)
[10] = dose: 400.0 mg/kg/injection, schedule: Q01DX009 (ip), vehicle: Klucel (hydroxypropylcellulose) (HPC)
[11] = dose: 200.0 mg/kg/injection, schedule: Q01DX009 (ip), vehicle: saline
[12] = dose: 100.0 mg/kg/injection, schedule: Q01DX001 (ip), vehicle: saline
[13] = dose: 200.0 mg/kg/injection, schedule: Q01DX001 (ip), vehicle: saline
[14] = dose: 400.0 mg/kg/injection, schedule: Q01DX001 (ip), vehicle: saline
[15] = dose: 100.0 mg/kg/injection, schedule: Q04DX003 (ip), vehicle: Klucel (hydroxypropylcellulose) (HPC)
[16] = dose: 200.0 mg/kg/injection, schedule: Q04DX003 (ip), vehicle: Klucel (hydroxypropylcellulose) (HPC)
[17] = dose: 400.0 mg/kg/injection, schedule: Q04DX003 (ip), vehicle: Klucel (hydroxypropylcellulose) (HPC)
[18] = dose: 50.0 mg/kg/injection, schedule: Q01DX001 (ip), vehicle: saline

Measured: T/C

O=C(O)c1ccccc1Br.[Ni]
inactive: dose: 3.0 mg/kg/injection, schedule: Q01DX009 (ip), vehicle: Klucel (hydroxypropylcellulose) (HPC) 91 % of control | dose: 6.0 mg/kg/injection, schedule: Q01DX009 (ip), vehicle: Klucel (hydroxypropylcellulose) (HPC) 94 % of control | dose: 12.0 mg/kg/injection, schedule: Q01DX009 (ip), vehicle: Klucel (hydroxypropylcellulose) (HPC) 94 % of control | dose: 12.5 mg/kg/injection, schedule: Q01DX001 (ip), vehicle: Klucel (hydroxypropylcellulose) (HPC) 97 % of control | dose: 25.0 mg/kg/injection, schedule: Q01DX001 (ip), vehicle: Klucel (hydroxypropylcellulose) (HPC) 93 % of control | dose: 25.0 mg/kg/injection, schedule: Q01DX009 (ip), vehicle: Klucel (hydroxypropylcellulose) (HPC) 88 % of control | dose: 50.0 mg/kg/injection, schedule: Q01DX001 (ip), vehicle: Klucel (hydroxypropylcellulose) (HPC) 103 % of control

Cc1ccc(S(=O)(=O)OCC23CCC2(COS(=O)(=O)c2ccc(C)cc2)COC3)cc1 (configuration not stated)
inactive: [1] 96 % of control | dose: 75.0 mg/kg/injection, schedule: Q01DX009 (ip), vehicle: saline 94 % of control | [2] 93 % of control | [3] 95 % of control | [4] 89 % of control

CCCCCCCCCCCCSC1=C(Cl)C(=O)C(OC)=C(OC)C1=O
inactive: dose: 3.12 mg/kg/injection, schedule: Q01DX009 (ip), vehicle: saline with Tween-80 100 % of control | dose: 6.25 mg/kg/injection, schedule: Q01DX009 (ip), vehicle: saline with Tween-80 93 % of control | dose: 12.5 mg/kg/injection, schedule: Q01DX009 (ip), vehicle: saline with Tween-80 94 % of control | [5] 96 % of control | [6] 100 % of control | [7] 94 % of control

C=CCNC(=S)Nc1cccc(OC(=O)NC2CCCCC2)c1
inactive: [8] 103 % of control | [9] 105 % of control | [10] 97 % of control

CC[CH2][Pb]([CH2]CC)([CH2]CC)[O]C(=O)C(Cl)(Cl)Cl
inactive: dose: 3.12 mg/kg/injection, schedule: Q01DX009 (ip), vehicle: Klucel (hydroxypropylcellulose) (HPC) 108 % of control | dose: 3.12 mg/kg/injection, schedule: Q04DX002 (ip), vehicle: Klucel (hydroxypropylcellulose) (HPC) 105 % of control | dose: 6.25 mg/kg/injection, schedule: Q01DX009 (ip), vehicle: Klucel (hydroxypropylcellulose) (HPC) 93 % of control | dose: 6.25 mg/kg/injection, schedule: Q04DX002 (ip), vehicle: Klucel (hydroxypropylcellulose) (HPC) 93 % of control | dose: 12.5 mg/kg/injection, schedule: Q01DX009 (ip), vehicle: Klucel (hydroxypropylcellulose) (HPC) 101 % of control | dose: 12.5 mg/kg/injection, schedule: Q04DX002 (ip), vehicle: Klucel (hydroxypropylcellulose) (HPC) 97 % of control and 99 % of control

O=C(O)C1C2CC3C(C2)C31.[Ag] (configuration not stated)
inactive: dose: 20.0 mg/kg/injection, schedule: Q01DX009 (ip), vehicle: Klucel (hydroxypropylcellulose) (HPC) 91 % of control | dose: 20.0 mg/kg/injection, schedule: Q04DX003 (ip), vehicle: Klucel (hydroxypropylcellulose) (HPC) 93 % of control | dose: 40.0 mg/kg/injection, schedule: Q04DX003 (ip), vehicle: Klucel (hydroxypropylcellulose) (HPC) 89 % of control

CCCCOc1ccc(OC(=O)Nc2cccc(C(C)=O)c2)cc1
inactive: [8] 108 % of control | [9] 96 % of control | [10] 96 % of control

CCCCCSc1nc(N)nc2nc[nH]c12
inactive: dose: 50.0 mg/kg/injection, schedule: Q01DX Z (ip), vehicle: methylcellulose (MC) 117 % of control | [1] 106 % of control | dose: 135.0 mg/kg/injection, schedule: Q01DX009 (ip), vehicle: saline 98 % of control | [2] 109 % of control | [11] 104 % of control | dose: 200.0 mg/kg/injection, schedule: Q01DX Z (ip), vehicle: methylcellulose (MC) 104 % of control | [3] 101 % of control | [4] 119 % of control

Nc1ncnn1C(=O)OCc1ccccc1
inactive: [12] 98 % of control | dose: 100.0 mg/kg/injection, schedule: Q01DX009 (ip), vehicle: saline 89 % of control | [13] 112 % of control | [11] 96 % of control | [14] 93 % of control | dose: 400.0 mg/kg/injection, schedule: Q01DX009 (ip), vehicle: saline 100 % of control

C/C(=N\N=C(/C)c1ccc2cc3c(cc2c1)OCO3)c1ccc2cc3c(cc2c1)OCO3
inactive: [1] 97 % of control | [2] 92 % of control | [3] 89 % of control

COC1=C(OC)C(=O)c2c(c(=O)c3ccccc3n2C)C1=O
inactive: dose: 25.0 mg/kg/injection, schedule: Q01DX001 (ip), vehicle: carboxymethylcellulose (CMC) 104 % of control | dose: 50.0 mg/kg/injection, schedule: Q01DX001 (ip), vehicle: carboxymethylcellulose (CMC) 95 % of control | dose: 100.0 mg/kg/injection, schedule: Q01DX001 (ip), vehicle: carboxymethylcellulose (CMC) 101 % of control

O=c1cc(CNc2ccc(Cl)cc2)[nH]c(=O)[nH]1
inactive: dose: 100.0 mg/kg/injection, schedule: Q04DX003 (ip), vehicle: saline with Tween-80 98 % of control | dose: 200.0 mg/kg/injection, schedule: Q04DX003 (ip), vehicle: saline with Tween-80 101 % of control | dose: 400.0 mg/kg/injection, schedule: Q04DX003 (ip), vehicle: saline with Tween-80 95 % of control

CC(C)(C)CC(Cl)Cl
inactive: [8] 100 % of control | [15] 96 % of control | [9] 101 % of control | [16] 98 % of control | [17] 94 % of control

O=C(Nc1ccc(Cl)c(Cl)c1)Sc1ccc(Cl)cc1
inactive: [5] 100 % of control | [6] 103 % of control | [7] 101 % of control

Cc1cc(N=Nc2ccc([N+](=O)[O-])cc2)ccc1N(C)C
inactive: dose: 100.0 mg/kg/injection, schedule: Q01DX001 (ip), vehicle: other 97 % of control | dose: 200.0 mg/kg/injection, schedule: Q01DX001 (ip), vehicle: other 101 % of control | dose: 400.0 mg/kg/injection, schedule: Q01DX001 (ip), vehicle: other 89 % of control

CCCCNC(c1ccc(C[N+]2(C)CCCC2)cc1)C(Cl)(Cl)Cl (configuration not stated)
inactive: dose: 10.0 mg/kg/injection, schedule: Q01DX001 (ip), vehicle: saline 95 % of control | dose: 20.0 mg/kg/injection, schedule: Q01DX001 (ip), vehicle: saline 95 % of control

CC12CC3CC(C)(C1)CC(CN=C(N)CS)(C3)C2
inactive: dose: 2.5 mg/kg/injection, schedule: Q01DX009 (ip), vehicle: Klucel (hydroxypropylcellulose) (HPC) 109 % of control | dose: 2.5 mg/kg/injection, schedule: Q04DX002 (ip), vehicle: Klucel (hydroxypropylcellulose) (HPC) 96 % of control | dose: 5.0 mg/kg/injection, schedule: Q01DX009 (ip), vehicle: Klucel (hydroxypropylcellulose) (HPC) 114 % of control | dose: 5.0 mg/kg/injection, schedule: Q04DX002 (ip), vehicle: Klucel (hydroxypropylcellulose) (HPC) 101 % of control | dose: 10.0 mg/kg/injection, schedule: Q01DX009 (ip), vehicle: Klucel (hydroxypropylcellulose) (HPC) 111 % of control | dose: 10.0 mg/kg/injection, schedule: Q04DX002 (ip), vehicle: Klucel (hydroxypropylcellulose) (HPC) 102 % of control

O=C(CCCC(=O)NNC(=S)Nc1cccc2ccccc12)NNC(=S)Nc1cccc2ccccc12
inactive: [18] 98 % of control | [12] 93 % of control | [13] 96 % of control | [14] 96 % of control

Cc1ccc(Nc2nc(N)nc(N)c2C=O)cc1C
inactive: [18] 109 % of control | [12] 109 % of control | [13] 100 % of control | [14] 97 % of control

CCNC(=O)C1C(c2ccccc2)C1c1ccccc1 (configuration not stated)
inactive: dose: 25.0 mg/kg/injection, schedule: Q04DX002 (ip), vehicle: Klucel (hydroxypropylcellulose) (HPC) 97 % of control | dose: 50.0 mg/kg/injection, schedule: Q04DX002 (ip), vehicle: Klucel (hydroxypropylcellulose) (HPC) 102 % of control | dose: 100.0 mg/kg/injection, schedule: Q04DX002 (ip), vehicle: Klucel (hydroxypropylcellulose) (HPC) 102 % of control

CN(C)c1ccc(/C=C2\C=Cc3ccccc32)c(F)c1
inactive: [8] 98 % of control | [15] 96 % of control | [9] 101 % of control | [16] 93 % of control | [10] 92 % of control | [17] 96 % of control
